Patent US9073907B2, “Thiazoles derivatives and their use as positive allosteric modulators of metabotropic glutamate receptors” (Addex Pharma S.A., priority 2009, dated 2015)

Row | Structure (SMILES) | melting point [°C]
1 | Cc1ccnc(Nc2nc(-c3c[nH]nc3N3CCCCC3)cs2)n1 [Compound 1-57, N-(4-Methylpyrimidin-2-yl)-4-(3-(piperidin-1-yl)-1H-pyrazol-4-yl)thiazol-2-amine] | 256
2 | CC(=O)c1[nH]ncc1-c1csc(Nc2ncccn2)n1 [Compound 1-67, 1-(4-(2-(Pyrimidin-2-ylamino)thiazol-4-yl)-1H-pyrazol-5-yl)ethanone] | 287
3 | c1cnc(Nc2nc(-c3cn[nH]c3)cs2)nc1 [Compound 1-59, 4-(1H-Pyrazol-4-yl)-N-(pyrimidin-2-yl)thiazol-2-amine] | 311 to 312
4 | Fc1ccc(Nc2nc(-c3cn[nH]c3)c(F)s2)nc1 [Compound 1-28, 5-Fluoro-N-(5-fluoropyridin-2-yl)-4-(1H-pyrazol-4-yl)thiazol-2-amine] | 239
5 | Cc1sc(Nc2ccccn2)nc1-c1cnn(C(=O)N(C)C)c1 [Compound 1-36, N,N-Dimethyl-4-(5-methyl-2-(pyridin-2-ylamino)thiazol-4-yl)-1H-pyrazole-1-carboxamide] | 181 to 185
6 | Cc1ccnc(Nc2nc(-c3cn[nH]c3)c(C)s2)n1 [Compound 1-33, 5-Methyl-N-(4-methylpyrimidin-2-yl)-4-(1H-pyrazol-4-yl)thiazol-2-amine] | 255
7 | Cc1sc(Nc2cc(F)ccn2)nc1-c1cn[nH]c1 [Compound 1-19, N-(4-Fluoropyridin-2-yl)-5-methyl-4-(1H-pyrazol-4-yl)thiazol-2-amine] | 283
8 | CC(=O)c1[nH]ncc1-c1csc(Nc2nccc(C)n2)n1 [Compound 1-54, 1-(4-(2-(4-Methylpyrimidin-2-ylamino)thiazol-4-yl)-1H-pyrazol-5-yl)ethanone] | 305 to 310
9 | Cc1sc(Nc2nccc(C(C)C)n2)nc1-c1cn[nH]c1 [Compound 1-52, N-(4-Isopropylpyrimidin-2-yl)-5-methyl-4-(1H-pyrazol-4-yl)thiazol-2-amine] | 249 to 252
10 | O=C(c1[nH]ncc1-c1csc(Nc2ncccn2)n1)C1CC1 [Compound 1-66, Cyclopropyl(4-(2-(pyrimidin-2-ylamino)thiazol-4-yl)-1H-pyrazol-5-yl)methanone] | 244
11 | Cc1cccc(Nc2nc(-c3cnn(C(N)=O)c3)c(F)s2)n1 [Compound 1-30, 4-(5-Fluoro-2-(6-methylpyridin-2-ylamino)thiazol-4-yl)-1H-pyrazole-1-carboxamide] | 209
12 | COCc1n[nH]cc1-c1csc(Nc2ccccn2)n1 [Compound 1-40, 4-(3-(Methoxymethyl)-1H-pyrazol-4-yl)-N-(pyridin-2-yl)thiazol-2-amine] | 190
13 | Fc1cnc(Nc2nc(-c3cn[nH]c3)cs2)nc1 [Compound 1-55, N-(5-Fluoropyrimidin-2-yl)-4-(1H-pyrazol-4-yl)thiazol-2-amine] | 256
14 | Cc1sc(Nc2cccc(C(F)F)n2)nc1-c1cn[nH]c1 [Compound 1-44, N-(6-(Difluoromethyl)pyridin-2-yl)-5-methyl-4-(1H-pyrazol-4-yl)thiazol-2-amine] | 269 to 271
15 | Clc1sc(Nc2ncccn2)nc1-c1cn[nH]c1 [Compound 1-45, 5-Chloro-4-(1H-pyrazol-4-yl)-N-(pyrimidin-2-yl)thiazol-2-amine] | 310 to 313
16 | CCc1ccnc(Nc2nc(-c3cn[nH]c3)c(C)s2)n1 [Compound 1-46, N-(4-Ethylpyrimidin-2-yl)-5-methyl-4-(1H-pyrazol-4-yl)thiazol-2-amine] | 223 to 225
17 | Cc1ccnc(Nc2nc(-c3c[nH]nc3N3CCOCC3)cs2)n1 [Compound 1-60, N-(4-Methylpyrimidin-2-yl)-4-(3-morpholino-1H-pyrazol-4-yl)thiazol-2-amine] | 260
18 | Cc1sc(Nc2cccc(I)n2)nc1-c1cn[nH]c1 [Compound 1-14, N-(6-Iodopyridin-2-yl)-5-methyl-4-(1H-pyrazol-4-yl)thiazol-2-amine] | > 260
19 | Cc1sc(Nc2cccc(CF)n2)nc1-c1cn[nH]c1 [Compound 1-43, N-(6-(Fluoromethyl)pyridin-2-yl)-5-methyl-4-(1H-pyrazol-4-yl)thiazol-2-amine] | 270 to 280

Row | Structure (SMILES) | melting point [°C]
20 | Cc1sc(Nc2ncccc2I)nc1-c1cn[nH]c1 [Compound 1-15, N-(3-Iodopyridin-2-yl)-5-methyl-4-(1H-pyrazol-4-yl)thiazol-2-amine] | 243 to 245
21 | c1ccc(Nc2nc(-c3cn[nH]c3)c(N3CCCCC3)s2)nc1 [Compound 1-4, 5-(Piperidin-1-yl)-4-(1H-pyrazol-4-yl)-N-(pyridin-2-yl)thiazol-2-amine] | 238
22 | COc1ccc(Nc2nc(-c3cn[nH]c3)c(C)s2)nc1 [Compound 1-24, N-(5-M ethoxypyridin-2-yl)-5-methyl-4-(1H-pyrazol-4-yl)thiazol-2-amine] | 229
23 | Cc1sc(Nc2ccccn2)nc1-c1cnn(C(=O)c2ccccn2)c1 [Compound 1-63, (4-(5-Methyl-2-(pyridin-2-ylamino)thiazol-4-yl)-1H-pyrazol-1-yl)(pyridin-2-yl)methanone] | 226 to 227
24 | Fc1sc(Nc2cnccn2)nc1-c1cn[nH]c1 [Compound 1-25, 5-Fluoro-N-(pyrazin-2-yl)-4-(1H-pyrazol-4-yl)thiazol-2-amine] | 279
25 | Cc1ccnc(Nc2nc(-c3cn[nH]c3)c(Cl)s2)n1 [Compound 1-49, 5-Chloro-N-(4-methylpyrimidin-2-yl)-4-(1H-pyrazol-4-yl)thiazol-2-amine] | 243
26 | Cc1ccnc(Nc2nc(-c3cn[nH]c3)cs2)n1 [Compound 1-31, N-(4-Methylpyrimidin-2-yl)-4-(1H-pyrazol-4-yl)thiazol-2-amine] | 307 to 310
27 | c1ccc(Nc2nc(-c3cn[nH]c3)c(N3CCOCC3)s2)nc1 [Compound 1-2, 5-Morpholino-4-(1H-pyrazol-4-yl)-N-(pyridin-2-yl)thiazol-2-amine] | 230 to 231
28 | c1ccc(-c2n[nH]cc2-c2csc(Nc3ccccn3)n2)cc1 [Compound 1-37, 4-(3-Phenyl-1H-pyrazol-4-yl)-N-(pyridin-2-yl)thiazol-2-amine] | 229 to 231
29 | Cc1ccc(F)c(Nc2nc(-c3cn[nH]c3)c(C)s2)n1 [Compound 1-23, N-(3-Fluoro-6-methylpyridin-2-yl)-5-methyl-4-(1H-pyrazol-4-yl)thiazol-2-amine] | 323
30 | Cc1sc(Nc2ccccn2)nc1-c1cnn(S(=O)(=O)c2ccc(Cl)cc2)c1 [Compound 1-9, 4-(1-(4-Chlorophenylsulfonyl)-1H-pyrazol-4-yl)-5-methyl-N-(pyridin-2-yl)thiazol-2-amine] | 232 to 233
31 | Cc1sc(Nc2nccc(C3CC3)n2)nc1-c1cn[nH]c1 [Compound 1-62, N-(4-Cyclopropylpyrimidin-2-yl)-5-methyl-4-(1H-pyrazol-4-yl)thiazol-2-amine] | 228 to 231
32 | CN1CCC(Nc2nc(-c3cn[nH]c3)cs2)C1=O (centres unmarked) [Compound 1-50, 3-(4-(1H-Pyrazol-4-yl)thiazol-2-ylamino)-1-methylpyrrolidin-2-one] | 196 to 204
33 | Cc1cnc(Nc2nc(-c3cn[nH]c3)c(C)s2)nc1 [Compound 1-34, 5-Methyl-N-(5-methylpyrimidin-2-yl)-4-(1H-pyrazol-4-yl)thiazol-2-amine] | > 410
34 | Cc1cccc(Nc2nc(-c3cn[nH]c3)c(F)s2)n1 [Compound 1-11, 5-Fluoro-N-(6-methylpyridin-2-yl)-4-(1H-pyrazol-4-yl)thiazol-2-amine] | 204
35 | Cc1nc(Nc2nc(-c3cn[nH]c3)cs2)cs1 [Compound 1-41, N-(2-Methylthiazol-4-yl)-4-(1H-pyrazol-4-yl)thiazol-2-amine] | 236 to 239
36 | c1csc(Nc2nc(-c3cn[nH]c3)cs2)n1 [Compound 1-42, 4-(1H-Pyrazol-4-yl)-N-(thiazol-2-yl)thiazol-2-amine] | 277 to 280
37 | CN(C)c1sc(Nc2ccccn2)nc1-c1cn[nH]c1 [Compound 1-12, N^5,N^5-Dimethyl-4-(1H-pyrazol-4-yl)-N^2-(pyridin-2-yl)thiazole-2,5-diamine] | 232
38 | Fc1sc(Nc2cccc(Cl)n2)nc1-c1cn[nH]c1 [Compound 1-13, N-(6-Chloropyridin-2-yl)-5-fluoro-4-(1H-pyrazol-4-yl)thiazol-2-amine] | 239
